# Tests used:
# Soy = assay: Phytotoxicity Test, soy; conditions: 2500 ppm spray, ten days
# Procedure: (§1) Experiments were also conducted to determine the phytotoxicity of representative compounds with respect to healthy fresh plants. […] The test plants were sprayed in accordance with the procedure described above for the Mite Foliage Spray Test so as to deliver approximately 100 milliliters of test solution to the leaves of each plant tested. The sprayed plants and controls were set aside for approximately one hour to allow the foliage to dry and were then placed in the greenhouse. After ten days the plants were visually inspected to determine the extent of foliage injury. A rating of 1 indicates no perceptible injury; 5 indicates the plant was dead and ratings of 2, 3 and 4 indicate intermediate degrees of injury based upon the number and extent to which leaves were injured.
# [1] = system: root-knot nematode, Meloidogyne incognita var. acrita; assay: Nematocide Test; note: key: 1: severe galling, equal to untreated plants; 2: moderate galling; 3: light galling; 4: very light galling; 5: no galling, perfect control; format: in vivo; conditions: 3.33 m.g. per jar; cucumber, approximately 3 weeks
# Procedure: The test organism used was the infective migratory larvae of the root-knot nematode, Meloidogyne incognita var. acrita, reared in the greenhouse on roots of cucumber plants. Infected plants were removed from the culture, and the roots are chopped very finely. A small amount of this inoculum was added to a pint jar containing approximately 180 cc. of soil. The jars were capped and incubated for one week at room temperature. During this period eggs of the nematode were hatched, and the larval forms migrated into the soil.
# Ten ml. of the test formulation were added to each of the two jars for each dosage tested. Following the addition of chemical, the jars were capped, and the contents thoroughly mixed on a ball mill for 5 minutes.
# The test compounds were formulated by a standard procedure of solution in acetone addition of an emulsifier, and dilution with water. Primary screening tests were conducted at 3.33 m.g. of the test compound per jar.
# The jars were left capped at room temperature for a period of 48 hours, and the contents then transferred to 3 inch pots. Subsequently, the pots were seeded to cucumber as an indicator crop and placed in the greenhouse where they were cared for in the normal fashion for approximately 3 weeks.
# The cucumber plants were then taken from the pots, the soil removed from the roots; and the amount of galling visually rated.
# In the test for activity against nematodes (nem) activity was rated as follows: […]
# [2] = Mammalian Toxicity, peroral toxicity to rat; format: in vivo; conditions: in vivo, po, read-out: A.O. Rat LD50
# Procedure: Certain compounds were also evaluated to determine their peroral toxicity to mammals by conventional methods. The representative animal selected for this experiment was the rat.
# Bean = assay: Phytotoxicity Test, bean; conditions: 2500 ppm spray, ten days
# Procedure: as §1
# Corn = assay: Phytotoxicity Test, corn; conditions: 2500 ppm spray, ten days
# Procedure: as §1
# Tom = assay: Phytotoxicity Test, tomato; conditions: 2500 ppm spray, ten days
# Procedure: as §1
# Cotton = assay: Phytotoxicity Test, cotton; conditions: 2500 ppm spray, ten days
# Procedure: as §1
compound,measurement,setting,value
"CSC(C)=NOC(=O)N(C)SN(C)C(=O)ON=CC(C)(C)SC [Example I, N-[2-Methylthio-2-methylpropionaldehyde O-(N-methylcarbamoyl)oxime]N-[1-methylthioacetaldehyde O-(N-methylcarbamoyl)oxime]sulfide]",Phytotoxicity: Soy,Soy,1
same,"Biological Activity: Nem (nematode, galling rating)",[1],5
same,LD50,[2],2.1 mg/kg
same,Phytotoxicity: Bean,Bean,2
same,Phytotoxicity: Corn,Corn,1
same,Phytotoxicity: Tom,Tom,1
same,Phytotoxicity: Cotton,Cotton,2
"CN(SN(C)C(=O)ON=C1SC(C)(C)C(=O)N1C)C(=O)ON=C1CSCCS1 [Example III, N-[2-(O-(N-methylcarbamoyl)oximino]-1,4-dithiane]-N-[2-O-(N-methylcarbamoyl)oximino-3,5,5-trimethylthiazolidin-4-one]sulfide]",Phytotoxicity: Soy,Soy,2
same,"Biological Activity: Nem (nematode, galling rating)",[1],1
same,LD50,[2],160 mg/kg
same,Phytotoxicity: Bean,Bean,1
same,Phytotoxicity: Corn,Corn,2
same,Phytotoxicity: Tom,Tom,1
same,Phytotoxicity: Cotton,Cotton,2
CSC(C)=NOC(=O)N(C)SN(C)C(=O)ON=C1CSCCS1 [Example II],Phytotoxicity: Soy,Soy,1
same,"Biological Activity: Nem (nematode, galling rating)",[1],5
same,LD50,[2],190 mg/kg
same,Phytotoxicity: Bean,Bean,1
same,Phytotoxicity: Corn,Corn,1
same,Phytotoxicity: Tom,Tom,1
same,Phytotoxicity: Cotton,Cotton,1
"CSC(C)=NOC(=O)N(C)SN(C)C(=O)Oc1cccc2c1OC(C)(C)C2 [Example V, N-[1-Methylthioacetaldehyde O-(N-methylcarbamoyl)oxime]N-[2,2-dimethyl-2,3-dihydro-7-(N-methylcarbamoyloxy)benzofuran]sulfide]",Phytotoxicity: Soy,Soy,2
same,"Biological Activity: Nem (nematode, galling rating)",[1],5
same,LD50,[2],15.9 mg/kg
same,Phytotoxicity: Bean,Bean,2
same,Phytotoxicity: Corn,Corn,1
same,Phytotoxicity: Tom,Tom,2
same,Phytotoxicity: Cotton,Cotton,2
"CSC(C)(C)C=NOC(=O)N(C)SN(C)C(=O)Oc1cccc2ccccc12 [Example VI, N-[2-Methylthio-2-methylpropionaldehyde O-(N-methylcarbamoyl)oxime]N-[1-(N-methylcarbamoyloxy)naphthalene]sulfide]",Phytotoxicity: Soy,Soy,1
same,"Biological Activity: Nem (nematode, galling rating)",[1],4
same,LD50,[2],2.97 mg/kg
same,Phytotoxicity: Bean,Bean,1
same,Phytotoxicity: Corn,Corn,1
same,Phytotoxicity: Tom,Tom,1
same,Phytotoxicity: Cotton,Cotton,1
"C#CCOC(=O)N(C)SN(C)C(=O)ON=C1SC(C)(C)C(=O)N1C [IV, N-[N-methyl-N-propargyloxycarbonylamino]N-[3,5,5-trimethylthiazolidin-4-one-2 O-(N-methylcarbamoyl)oxime]sulfide]",Phytotoxicity: Soy,Soy,2
same,"Biological Activity: Nem (nematode, galling rating)",[1],1
same,Phytotoxicity: Bean,Bean,1
same,Phytotoxicity: Corn,Corn,1
same,Phytotoxicity: Tom,Tom,2
same,Phytotoxicity: Cotton,Cotton,2
"CSC(C)=NOC(=O)N(C)SN(C)C(=O)ON=C(SC)C(=O)N(C)C [XI, N-[1-Methylthioacetaldehyde O-(N-methylcarbamoyl)oxime]N-[1-methylthio-N', N'-dimethylcarbamoylformaldehyde O-(N-methylcarbamoyl)oxime]sulfide]",Phytotoxicity: Soy,Soy,1
same,LD50,[2],14.1 mg/kg
same,Phytotoxicity: Bean,Bean,1
same,Phytotoxicity: Corn,Corn,1
same,Phytotoxicity: Tom,Tom,1
same,Phytotoxicity: Cotton,Cotton,2
"CCC(C)c1cc([N+](=O)[O-])cc([N+](=O)[O-])c1OC(=O)N(C)SN(C)C(=O)ON=C(C)SC (stereo not drawn) [XIX, N-[1-Methylthioacetaldehyde O-(N-methylcarbamoyl)oxime]N-[2,4-dinitro-6-sec-butylphenyl-(N-methylcarbamoyloxy)]sulfide]",Phytotoxicity: Soy,Soy,2
same,"Biological Activity: Nem (nematode, galling rating)",[1],1
same,Phytotoxicity: Bean,Bean,1
same,Phytotoxicity: Corn,Corn,2
same,Phytotoxicity: Tom,Tom,2
same,Phytotoxicity: Cotton,Cotton,2
CSC(C)=NOC(=O)N(C)SN(C)C(=O)ON=C(C)C(=O)c1ccccc1 [XLI],Phytotoxicity: Soy,Soy,1
same,"Biological Activity: Nem (nematode, galling rating)",[1],1
same,Phytotoxicity: Bean,Bean,1
same,Phytotoxicity: Corn,Corn,1
same,Phytotoxicity: Tom,Tom,1
same,Phytotoxicity: Cotton,Cotton,1
CSC(C)=NOC(=O)N(C)SN(C)C(=O)ON=C1SCSCS1 [XL],Phytotoxicity: Soy,Soy,1
same,"Biological Activity: Nem (nematode, galling rating)",[1],5
same,Phytotoxicity: Bean,Bean,1
same,Phytotoxicity: Corn,Corn,1
same,Phytotoxicity: Tom,Tom,1
same,Phytotoxicity: Cotton,Cotton,1
"CSC(C)=NOC(=O)N(C)SN(C)C(=O)Oc1cccc(N(C)C)c1 [XX, N-[1-Methylthioacetaldehyde O-(N-methylcarbamoyl)oxime]N-[3-(N',N'-dimethylamino)phenyl-(N-methylcarbamoyloxy)]sulfide]",Phytotoxicity: Soy,Soy,2
same,"Biological Activity: Nem (nematode, galling rating)",[1],4
same,Phytotoxicity: Bean,Bean,1
same,Phytotoxicity: Corn,Corn,1
same,Phytotoxicity: Tom,Tom,1
same,Phytotoxicity: Cotton,Cotton,2
"CSC(C)=NOC(=O)N(C)SN(C)C(=O)Oc1ccc(NC=O)c(C)c1 [XXI, N-[1-Methylthioacetaldehyde O-(N-methylcarbamoyl)oxime]N-[4-formylamino-3-methylphenyl-(N-methylcarbamoyloxy)]sulfide]",Phytotoxicity: Soy,Soy,1
same,"Biological Activity: Nem (nematode, galling rating)",[1],4
same,Phytotoxicity: Bean,Bean,1
same,Phytotoxicity: Corn,Corn,1
same,Phytotoxicity: Tom,Tom,1
same,Phytotoxicity: Cotton,Cotton,1
CSC(C)=NOC(=O)N(C)SN(C)C(=O)Oc1ccc(C(C)(C)C)cc1Cl [XXIX],Phytotoxicity: Soy,Soy,1
same,"Biological Activity: Nem (nematode, galling rating)",[1],5
same,Phytotoxicity: Bean,Bean,1
same,Phytotoxicity: Corn,Corn,1
same,Phytotoxicity: Tom,Tom,1
same,Phytotoxicity: Cotton,Cotton,1
"CC(C)c1ccc(OC(=O)N(C)SN(C)C(=O)ON=C2CSCCS2)cc1 [XXV, N-[2-O-(N-methylcarbamoyl)oximino-1,4-dithiane]N-[4-isopropyl-(N-methylcarbamoyloxy)benzene]sulfide]",Phytotoxicity: Soy,Soy,1
same,Phytotoxicity: Bean,Bean,1
same,Phytotoxicity: Corn,Corn,1
same,Phytotoxicity: Tom,Tom,1
same,Phytotoxicity: Cotton,Cotton,3
CSC(C)=NOC(=O)N(C)SN(C)C(=O)Oc1cccc(C(C)C)c1 [XXVIII],Phytotoxicity: Soy,Soy,2
same,LD50,[2],40 mg/kg
same,Phytotoxicity: Bean,Bean,1
same,Phytotoxicity: Corn,Corn,1
same,Phytotoxicity: Tom,Tom,1
same,Phytotoxicity: Cotton,Cotton,2
C#CCOC(=O)N(C)SN(C)C(=O)Oc1ccc(C)c(C)c1 [XXVII],Phytotoxicity: Soy,Soy,2
same,"Biological Activity: Nem (nematode, galling rating)",[1],5
same,Phytotoxicity: Bean,Bean,1
same,Phytotoxicity: Corn,Corn,1
same,Phytotoxicity: Tom,Tom,1
same,Phytotoxicity: Cotton,Cotton,2
C#CCOC(=O)N(C)SN(C)C(=O)Oc1cccc2ccccc12 [XXVI],Phytotoxicity: Soy,Soy,2
same,"Biological Activity: Nem (nematode, galling rating)",[1],4
same,Phytotoxicity: Bean,Bean,1
same,Phytotoxicity: Corn,Corn,1
same,Phytotoxicity: Tom,Tom,1
same,Phytotoxicity: Cotton,Cotton,1
C=CCc1ccc(OC(=O)N(C)SN(C)C(=O)ON=C(C)SC)c(OC)c1 [XXXIII],Phytotoxicity: Soy,Soy,1
same,"Biological Activity: Nem (nematode, galling rating)",[1],5
same,Phytotoxicity: Bean,Bean,1
same,Phytotoxicity: Corn,Corn,1
same,Phytotoxicity: Tom,Tom,1
same,Phytotoxicity: Cotton,Cotton,3
CSC(C)=NOC(=O)N(C)SN(C)C(=O)Oc1ccc(-c2ccccc2)cc1 [XXXII],Phytotoxicity: Soy,Soy,1
same,"Biological Activity: Nem (nematode, galling rating)",[1],4
same,Phytotoxicity: Bean,Bean,2
same,Phytotoxicity: Corn,Corn,1
same,Phytotoxicity: Tom,Tom,1
same,Phytotoxicity: Cotton,Cotton,2
CSC(C)=NOC(=O)N(C)SN(C)C(=O)Oc1ccc(Oc2ccccc2)cc1 [XXXIV],Phytotoxicity: Soy,Soy,1
same,LD50,[2],> 640 mg/kg
same,Phytotoxicity: Bean,Bean,1
same,Phytotoxicity: Corn,Corn,1
same,Phytotoxicity: Tom,Tom,1
same,Phytotoxicity: Cotton,Cotton,1
CSC(C)=NOC(=O)N(C)SN(C)C(=O)Oc1ccccc1OC(C)C [XXXVIII],Phytotoxicity: Soy,Soy,2
same,LD50,[2],63.5 mg/kg
same,Phytotoxicity: Bean,Bean,1
same,Phytotoxicity: Corn,Corn,1
same,Phytotoxicity: Tom,Tom,1
same,Phytotoxicity: Cotton,Cotton,1
CSC(C)=NOC(=O)N(C)SN(C)C(=O)Oc1ccccc1C1OCCO1 [XXXVII],Phytotoxicity: Soy,Soy,2
same,"Biological Activity: Nem (nematode, galling rating)",[1],4
same,Phytotoxicity: Bean,Bean,2
same,Phytotoxicity: Corn,Corn,1
same,Phytotoxicity: Tom,Tom,1
same,Phytotoxicity: Cotton,Cotton,2
CSC(C)=NOC(=O)N(C)SN(C)C(=O)Oc1cccc(Oc2ccccc2)c1 [XXXV],Phytotoxicity: Soy,Soy,1
same,Phytotoxicity: Bean,Bean,1
same,Phytotoxicity: Corn,Corn,1
same,Phytotoxicity: Tom,Tom,1
same,Phytotoxicity: Cotton,Cotton,1
CCCCCCCCCCCCc1ccc(OC(=O)N(C)SN(C)C(=O)ON=C(C)SC)cc1 [XXX],Phytotoxicity: Soy,Soy,1
same,"Biological Activity: Nem (nematode, galling rating)",[1],4
same,Phytotoxicity: Bean,Bean,1
same,Phytotoxicity: Corn,Corn,1
same,Phytotoxicity: Tom,Tom,1
same,Phytotoxicity: Cotton,Cotton,2
